Holding throughout (assay): biochemical
Experiment [1] has as its target T1, panel of 374 wild-type kinases (Homo sapiens, UniProt Q8IYT8).
T1 construct: purchased Reaction Biology Corporation
T1 sequence (Q8IYT8 1-1036): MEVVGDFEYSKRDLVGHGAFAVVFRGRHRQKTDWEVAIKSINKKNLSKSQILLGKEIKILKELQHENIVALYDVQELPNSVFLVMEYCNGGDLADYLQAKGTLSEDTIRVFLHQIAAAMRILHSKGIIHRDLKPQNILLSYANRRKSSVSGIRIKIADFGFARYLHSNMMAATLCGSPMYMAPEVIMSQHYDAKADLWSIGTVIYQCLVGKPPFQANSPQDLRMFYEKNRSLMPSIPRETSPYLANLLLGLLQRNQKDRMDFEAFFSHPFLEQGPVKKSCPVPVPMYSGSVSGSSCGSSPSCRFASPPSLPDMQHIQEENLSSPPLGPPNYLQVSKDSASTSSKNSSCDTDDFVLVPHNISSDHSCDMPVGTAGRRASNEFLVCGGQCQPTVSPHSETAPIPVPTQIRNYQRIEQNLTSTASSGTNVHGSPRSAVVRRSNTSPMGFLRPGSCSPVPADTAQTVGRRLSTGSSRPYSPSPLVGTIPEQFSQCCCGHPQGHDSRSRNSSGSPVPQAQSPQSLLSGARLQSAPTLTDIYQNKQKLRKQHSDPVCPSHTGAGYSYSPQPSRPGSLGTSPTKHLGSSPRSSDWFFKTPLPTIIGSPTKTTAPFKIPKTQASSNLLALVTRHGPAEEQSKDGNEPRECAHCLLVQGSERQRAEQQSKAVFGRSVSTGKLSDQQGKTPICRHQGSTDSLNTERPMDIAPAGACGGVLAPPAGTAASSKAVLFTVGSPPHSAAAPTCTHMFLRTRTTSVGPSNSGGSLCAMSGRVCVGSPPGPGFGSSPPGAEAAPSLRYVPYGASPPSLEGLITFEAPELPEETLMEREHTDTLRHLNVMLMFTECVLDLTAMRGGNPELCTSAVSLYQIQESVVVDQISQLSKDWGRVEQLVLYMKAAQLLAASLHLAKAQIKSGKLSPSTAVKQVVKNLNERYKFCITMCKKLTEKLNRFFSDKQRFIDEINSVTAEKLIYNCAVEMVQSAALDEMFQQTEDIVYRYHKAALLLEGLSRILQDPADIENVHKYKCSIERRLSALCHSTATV
As to conditions: read-out: % Enzyme Activity (relative to DMSO controls), kinase ULK2.

The target in experiment [2] is T2, panel of 374 wild-type kinases (Homo sapiens, UniProt P49759).
T2 construct: purchased Reaction Biology Corporation
T2 sequence (P49759 whole entry): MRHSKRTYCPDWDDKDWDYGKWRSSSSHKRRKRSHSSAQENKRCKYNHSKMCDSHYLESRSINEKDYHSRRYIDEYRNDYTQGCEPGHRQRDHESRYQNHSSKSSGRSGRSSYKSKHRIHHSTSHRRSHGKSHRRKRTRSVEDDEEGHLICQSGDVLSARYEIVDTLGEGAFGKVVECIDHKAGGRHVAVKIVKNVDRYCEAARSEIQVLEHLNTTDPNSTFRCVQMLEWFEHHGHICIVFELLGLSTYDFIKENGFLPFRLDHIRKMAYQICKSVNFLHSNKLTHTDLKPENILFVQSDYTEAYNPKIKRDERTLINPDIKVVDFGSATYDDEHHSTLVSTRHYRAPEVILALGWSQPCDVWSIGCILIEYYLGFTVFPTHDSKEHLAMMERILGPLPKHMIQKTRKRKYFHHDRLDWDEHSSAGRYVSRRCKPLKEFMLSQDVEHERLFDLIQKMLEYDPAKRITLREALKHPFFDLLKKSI
To be noted: read-out: % Enzyme Activity (relative to DMSO controls), CLK1.

Experiment [3] deals with T3, panel of 374 wild-type kinases (Homo sapiens, UniProt P35916).
T3 construct: purchased Reaction Biology Corporation
T3 sequence (P35916 25-1363): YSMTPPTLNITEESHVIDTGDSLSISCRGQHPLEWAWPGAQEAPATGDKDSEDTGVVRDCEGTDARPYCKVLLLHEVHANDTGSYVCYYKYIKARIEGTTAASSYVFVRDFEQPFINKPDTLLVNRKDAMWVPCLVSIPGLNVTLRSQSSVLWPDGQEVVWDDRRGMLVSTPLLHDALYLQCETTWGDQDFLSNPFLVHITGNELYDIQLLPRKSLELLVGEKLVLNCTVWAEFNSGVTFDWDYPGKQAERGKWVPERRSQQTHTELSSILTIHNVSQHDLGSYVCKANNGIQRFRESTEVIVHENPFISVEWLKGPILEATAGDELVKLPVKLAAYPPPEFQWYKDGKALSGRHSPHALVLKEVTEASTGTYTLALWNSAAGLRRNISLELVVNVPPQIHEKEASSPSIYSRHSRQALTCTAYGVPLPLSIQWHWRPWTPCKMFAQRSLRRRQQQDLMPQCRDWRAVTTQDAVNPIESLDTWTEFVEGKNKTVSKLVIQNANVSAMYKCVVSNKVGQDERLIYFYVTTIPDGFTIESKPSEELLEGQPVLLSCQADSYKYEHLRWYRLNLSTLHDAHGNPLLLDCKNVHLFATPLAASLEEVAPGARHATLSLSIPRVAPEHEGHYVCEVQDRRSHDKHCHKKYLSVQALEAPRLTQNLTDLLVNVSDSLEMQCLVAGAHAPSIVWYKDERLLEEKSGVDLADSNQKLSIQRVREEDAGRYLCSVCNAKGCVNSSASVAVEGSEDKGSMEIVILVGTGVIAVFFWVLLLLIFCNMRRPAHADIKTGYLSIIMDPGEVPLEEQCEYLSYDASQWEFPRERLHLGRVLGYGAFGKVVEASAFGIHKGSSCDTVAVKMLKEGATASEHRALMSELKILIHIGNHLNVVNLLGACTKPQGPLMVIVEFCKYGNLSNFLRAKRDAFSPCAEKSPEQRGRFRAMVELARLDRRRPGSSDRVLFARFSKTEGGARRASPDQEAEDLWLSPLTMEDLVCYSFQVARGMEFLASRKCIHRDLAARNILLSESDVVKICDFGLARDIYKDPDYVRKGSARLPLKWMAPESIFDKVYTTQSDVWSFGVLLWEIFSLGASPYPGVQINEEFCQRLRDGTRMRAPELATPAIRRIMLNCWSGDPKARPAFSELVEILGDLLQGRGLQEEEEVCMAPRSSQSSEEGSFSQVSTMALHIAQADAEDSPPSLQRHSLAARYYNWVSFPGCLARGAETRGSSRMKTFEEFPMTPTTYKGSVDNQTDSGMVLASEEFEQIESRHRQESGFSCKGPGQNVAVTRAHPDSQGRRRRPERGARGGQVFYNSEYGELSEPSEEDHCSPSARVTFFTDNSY
To be noted: read-out: % Enzyme Activity (relative to DMSO controls), FLT4/VEGFR3.

For experiment [4], the target named is T4, panel of 374 wild-type kinases (Homo sapiens, UniProt O15075).
T4 construct: purchased Reaction Biology Corporation
T4 sequence (O15075 1-740): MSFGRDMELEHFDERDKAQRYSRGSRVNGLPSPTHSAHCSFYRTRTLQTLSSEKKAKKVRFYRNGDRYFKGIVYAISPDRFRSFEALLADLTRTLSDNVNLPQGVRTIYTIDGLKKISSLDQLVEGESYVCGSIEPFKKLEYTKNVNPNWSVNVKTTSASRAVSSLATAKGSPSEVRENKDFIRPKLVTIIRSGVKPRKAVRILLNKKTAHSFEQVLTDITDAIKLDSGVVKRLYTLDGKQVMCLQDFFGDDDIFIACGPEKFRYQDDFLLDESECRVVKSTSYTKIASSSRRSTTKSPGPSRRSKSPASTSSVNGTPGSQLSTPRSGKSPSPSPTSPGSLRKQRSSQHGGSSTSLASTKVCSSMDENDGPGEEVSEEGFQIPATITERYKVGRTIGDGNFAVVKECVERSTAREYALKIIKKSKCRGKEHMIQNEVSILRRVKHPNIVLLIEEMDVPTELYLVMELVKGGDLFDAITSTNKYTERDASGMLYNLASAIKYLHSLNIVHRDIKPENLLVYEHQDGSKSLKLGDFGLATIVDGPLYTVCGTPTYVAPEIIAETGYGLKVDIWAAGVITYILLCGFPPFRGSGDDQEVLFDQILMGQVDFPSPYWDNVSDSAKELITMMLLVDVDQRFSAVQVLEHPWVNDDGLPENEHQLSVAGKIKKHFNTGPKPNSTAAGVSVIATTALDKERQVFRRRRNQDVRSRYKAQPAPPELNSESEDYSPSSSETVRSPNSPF
To be noted: read-out: % Enzyme Activity (relative to DMSO controls), DCAMKL1.

In experiment [5] the target is T5, panel of 374 wild-type kinases (Homo sapiens, UniProt Q9UIK4).
T5 construct: purchased Reaction Biology Corporation
T5 sequence (Q9UIK4 whole entry): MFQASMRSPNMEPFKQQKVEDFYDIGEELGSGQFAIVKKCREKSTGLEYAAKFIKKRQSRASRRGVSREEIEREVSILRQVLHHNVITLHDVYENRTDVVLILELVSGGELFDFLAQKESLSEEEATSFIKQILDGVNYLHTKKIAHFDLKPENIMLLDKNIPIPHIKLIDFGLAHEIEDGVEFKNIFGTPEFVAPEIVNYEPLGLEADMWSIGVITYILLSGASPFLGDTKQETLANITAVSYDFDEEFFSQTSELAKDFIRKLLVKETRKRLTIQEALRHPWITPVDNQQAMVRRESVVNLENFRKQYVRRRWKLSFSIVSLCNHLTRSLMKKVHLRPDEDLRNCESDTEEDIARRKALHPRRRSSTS
To be noted: read-out: % Enzyme Activity (relative to DMSO controls), DAPK2.

In experiment [6] the target is T6, panel of 374 wild-type kinases (Homo sapiens, UniProt Q9Y243).
T6 construct: purchased Reaction Biology Corporation
T6 sequence (Q9Y243 whole entry): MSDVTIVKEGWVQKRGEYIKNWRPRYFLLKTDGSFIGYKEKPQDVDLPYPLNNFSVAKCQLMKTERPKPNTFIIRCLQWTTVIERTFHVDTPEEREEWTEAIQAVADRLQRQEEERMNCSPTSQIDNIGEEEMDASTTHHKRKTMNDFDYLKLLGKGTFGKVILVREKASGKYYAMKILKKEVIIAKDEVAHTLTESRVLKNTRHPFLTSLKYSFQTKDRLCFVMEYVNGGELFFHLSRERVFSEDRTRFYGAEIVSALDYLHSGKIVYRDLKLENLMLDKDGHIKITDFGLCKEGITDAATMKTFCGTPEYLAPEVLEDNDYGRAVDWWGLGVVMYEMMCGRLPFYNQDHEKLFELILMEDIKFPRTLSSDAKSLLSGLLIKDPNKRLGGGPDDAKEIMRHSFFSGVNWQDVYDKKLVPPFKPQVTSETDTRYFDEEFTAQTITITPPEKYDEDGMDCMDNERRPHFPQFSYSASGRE
To be noted: read-out: % Enzyme Activity (relative to DMSO controls), AKT3.

Experiment [7] addresses T7, panel of 374 wild-type kinases (Homo sapiens, UniProt Q9Y2K2).
T7 construct: purchased Reaction Biology Corporation
As to conditions: read-out: % Enzyme Activity (relative to DMSO controls), kinase SIK3.

T7 sequence (Q9Y2K2 whole entry): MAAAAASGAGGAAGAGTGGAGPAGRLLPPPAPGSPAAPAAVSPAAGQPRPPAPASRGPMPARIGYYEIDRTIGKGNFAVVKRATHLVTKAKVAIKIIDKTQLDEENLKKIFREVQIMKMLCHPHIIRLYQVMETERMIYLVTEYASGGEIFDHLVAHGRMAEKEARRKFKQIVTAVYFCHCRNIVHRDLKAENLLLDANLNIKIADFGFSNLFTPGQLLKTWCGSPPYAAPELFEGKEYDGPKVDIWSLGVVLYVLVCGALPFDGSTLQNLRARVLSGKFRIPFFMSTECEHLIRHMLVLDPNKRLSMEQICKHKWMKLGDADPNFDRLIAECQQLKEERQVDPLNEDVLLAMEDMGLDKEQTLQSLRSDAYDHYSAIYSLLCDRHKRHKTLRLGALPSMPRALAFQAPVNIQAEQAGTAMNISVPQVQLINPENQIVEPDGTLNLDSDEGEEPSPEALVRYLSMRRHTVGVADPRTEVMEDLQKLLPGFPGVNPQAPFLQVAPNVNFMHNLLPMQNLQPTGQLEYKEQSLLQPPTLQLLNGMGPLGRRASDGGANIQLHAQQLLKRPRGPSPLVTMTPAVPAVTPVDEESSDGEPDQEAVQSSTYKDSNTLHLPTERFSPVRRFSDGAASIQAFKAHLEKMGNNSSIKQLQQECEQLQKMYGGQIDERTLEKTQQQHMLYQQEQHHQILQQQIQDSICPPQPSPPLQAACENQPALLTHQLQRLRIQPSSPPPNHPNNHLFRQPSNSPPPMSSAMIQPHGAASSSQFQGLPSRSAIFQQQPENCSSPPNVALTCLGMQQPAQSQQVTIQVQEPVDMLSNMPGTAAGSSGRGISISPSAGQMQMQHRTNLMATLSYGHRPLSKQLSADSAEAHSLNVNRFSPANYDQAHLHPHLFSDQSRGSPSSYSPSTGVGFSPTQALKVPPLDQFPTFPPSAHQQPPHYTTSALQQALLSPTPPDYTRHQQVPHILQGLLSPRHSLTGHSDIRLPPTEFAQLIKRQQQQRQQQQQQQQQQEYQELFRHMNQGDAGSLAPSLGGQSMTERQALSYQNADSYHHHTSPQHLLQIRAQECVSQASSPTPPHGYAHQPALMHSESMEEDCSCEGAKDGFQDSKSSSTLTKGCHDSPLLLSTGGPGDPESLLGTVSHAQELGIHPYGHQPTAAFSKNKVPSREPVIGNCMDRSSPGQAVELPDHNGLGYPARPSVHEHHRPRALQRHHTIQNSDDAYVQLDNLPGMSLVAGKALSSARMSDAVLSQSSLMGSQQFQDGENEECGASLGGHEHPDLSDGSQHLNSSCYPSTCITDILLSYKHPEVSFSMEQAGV

As for `O=C(Nc1cnn(-c2csc(C(=O)NC3COC3)c2)c1)Nc1ccccc1Cl` [Compound 17, 4-(4-(3-(2-chlorophenyl)ureido)-1H-pyrazol-1-yl)-N-(oxetan-3-yl)thiophene-2-carboxamide], the remaining activity at 5 µM in experiment [1] worked out at 196%; in experiment [2], 81%; in experiment [3], 93.8%; in experiment [4], 99.2%; in experiment [5] it was 103%; in experiment [6], 87.3%. Also, the remaining activity at 5 µM in experiment [7] amounted to 92.4%.
For the compound `O=C(Nc1cnn(-c2csc(C(=O)NC3COC3)c2)c1)Nc1c(F)cccc1Cl` [Compound 25, 4-(4-(3-(2-chloro-6-fluorophenyl)ureido)-1H-pyrazol-1-yl)-N-(oxetan-3-yl)thiophene-2-carboxamide], the remaining activity at 5 µM in experiment [1] came out at 105%; in experiment [2] it was 74.9%; in experiment [3] it was 86.6%; in experiment [4] it was 84.2%; in experiment [5], 102%; in experiment [6], 97.6%. For the same compound, the remaining activity at 5 µM in experiment [7] amounted to 94.5%.
Take `Cc1sc(C(=O)NC2COC2)cc1-n1cc(NC(=O)Nc2c(F)cccc2Cl)cn1` [Compound 27, 4-(4-(3-(2-chloro-6-fluorophenyl)ureido)-1H-pyrazol-1-yl)-5-methyl-N-(oxetan-3-yl)thiophene-2-carboxamide]: the remaining activity at 10 µM in experiment [1] (10 uM) is 74.9%; in experiment [2] (10 uM) it was 98.4%; in experiment [3] (10 uM), 81.9%; in experiment [4] (10 uM), 67.2%; in experiment [5] (10 uM), 99.5%; in experiment [6] (10 uM) it was 94.8%. Moreover, the remaining activity at 10 µM in experiment [7] (10 uM) is 86.9%.

For the origin of these results see patent US20240246942A1, “KINASE INHIBITORS FOR THE TREATMENT OF NEURODEGENERATIVE DISEASES” (priority 2020, published 2024).
